The target in the assay is T1, human α4β4 nAChR (Homo sapiens, UniProt P30926+P43681).
T1 construct: expressed in transfected cells; host or cells: Xenopus laevis oocytes, mRNA injection, 3.33 ng α4 and 3.33 ng β4
Put plainly: Two-electrode voltage-clamp recordings, Xenopus laevis oocytes expressing human α4β4 nAChR. It is filed as cell-based. The source says: The human α7 nAChR subunit was cloned in the pCDNA3.1 vector.
For the generation of the mRNA for injection, the plasmid DNAs of α3, α4, β2, and β4 were linearized with the NotI restriction endonuclease (New England Biolabs) and the plasmid DNA of α7 was linearized with the XbaI restriction endonuclease (New England Biolabs). The mRNAs of α3, α4, β2, and β4 were generated by in vitro transcription using the mMESSAGE mMACHINE SP6 Transcription Kit (Invitrogen). For the generation of α7 mRNA, the mMESSAGE mMACHINE T7 Transcription Kit (Invitrogen) was used. For the separation of the DNA and mRNA, a phenol–chloroform extraction (Chomczynski and Sacchi [2006]) was performed. The mRNA was then obtained by ethanol precipitation from the aqueous phase; for quantification, the BioPhotometer (Eppendorf) was used.
The recordings of human α7, α3β4, α4β2, and α4β4 nAChRs expressed in Xenopus laevis oocytes (EcoCyte Bioscience) were performed in two-electrode voltage-clamp mode using the Roboocyte2 system and the corresponding software (version 1.4.1; Multi Channel Systems MCS). Prior to the recordings, the oocytes were maintained at 19 °C in modified Barth’s solution containing [mM]: 88 NaCl, 1 KCl, 0.33 Ca(NO3)2, 0.82 MgSO4, 2.4 NaHCO3, 0.41 CaCl2, 5 Tris, 100 U/ml penicillin, 100 µg/ml streptomycin, pH 7.4.
To express human α7 nAChR, we injected 50 nl of mRNA solution (30 ng mRNA) per oocyte, using the Roboinject and the corresponding software (version 1.2.1; Multi Channel Systems MCS). […]
The baseline correction of voltage-clamp oocyte recordings was performed with the Roboocyte2 + software (version 1.4.3; Multi Channel Systems MCS, Germany). The maximal current influx and further analysis were executed in scripts written in R. In the antagonist experiments with oocytes, the maximal inward current was determined for the last response of each period (control, three antagonist concentrations, and washout).
In general terms: Two-electrode voltage clamp holds a large cell at a set potential and records current.

Each structure is given as a SMILES string.

T1 sequence (P43681 27-627): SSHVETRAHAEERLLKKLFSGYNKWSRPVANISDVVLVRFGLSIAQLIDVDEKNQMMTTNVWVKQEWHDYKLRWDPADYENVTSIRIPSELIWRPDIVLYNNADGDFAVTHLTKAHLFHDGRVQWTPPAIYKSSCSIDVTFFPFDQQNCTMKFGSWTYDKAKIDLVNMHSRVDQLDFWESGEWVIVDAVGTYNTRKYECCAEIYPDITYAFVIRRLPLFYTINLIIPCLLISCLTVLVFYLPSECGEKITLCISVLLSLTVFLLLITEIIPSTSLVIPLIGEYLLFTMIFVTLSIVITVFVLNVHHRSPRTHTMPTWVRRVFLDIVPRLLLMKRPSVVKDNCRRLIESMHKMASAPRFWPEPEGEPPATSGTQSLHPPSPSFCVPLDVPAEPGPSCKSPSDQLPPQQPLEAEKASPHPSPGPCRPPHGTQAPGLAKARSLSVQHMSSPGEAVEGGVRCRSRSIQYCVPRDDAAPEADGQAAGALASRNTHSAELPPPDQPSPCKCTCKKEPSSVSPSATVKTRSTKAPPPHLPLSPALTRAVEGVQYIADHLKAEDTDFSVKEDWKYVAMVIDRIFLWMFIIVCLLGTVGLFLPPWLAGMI
T1 sequence (P30926 22-498): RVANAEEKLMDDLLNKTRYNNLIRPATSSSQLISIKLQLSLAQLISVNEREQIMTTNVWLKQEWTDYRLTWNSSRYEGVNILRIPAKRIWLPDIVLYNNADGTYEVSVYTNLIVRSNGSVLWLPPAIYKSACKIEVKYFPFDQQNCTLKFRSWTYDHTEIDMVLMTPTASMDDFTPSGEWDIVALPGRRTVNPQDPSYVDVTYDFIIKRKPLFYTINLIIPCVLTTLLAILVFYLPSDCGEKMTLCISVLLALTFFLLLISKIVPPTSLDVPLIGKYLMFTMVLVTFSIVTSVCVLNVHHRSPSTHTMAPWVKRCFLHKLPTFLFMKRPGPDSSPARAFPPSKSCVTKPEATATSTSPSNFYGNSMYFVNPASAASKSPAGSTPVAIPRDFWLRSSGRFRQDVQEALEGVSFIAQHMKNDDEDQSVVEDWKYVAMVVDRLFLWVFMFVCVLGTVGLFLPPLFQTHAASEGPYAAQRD

Turning to `NC1=NCCN1Cc1ccc(Cl)nc1` [DN-IMI, desnitro-imidacloprid], the estimated maximum (normalized to nicotine (100 µM)) is reported as ~ 0.97. In addition, the EC50 (read-out: relative pEC50 (inward current amplitude) (converted)) was 3.16 µM.

Values taken from PMC8536575, “Acute effects of the imidacloprid metabolite desnitro-imidacloprid on human nACh receptors relevant for neuronal signaling” (Archives of Toxicology, 2021).
